Test results published in paper PMC7138307 (PLoS ONE, 2020).
Like-named read-outs stand apart in the source and are kept apart here.

What was measured:
[1] = Pharmacokinetic experiment, free drug levels in mouse; type: in vivo
Protocol: In vitro plasma and brain protein binding values were generated via the Rapid Equilibrium Dialysis method. The compound of interest was incubated in K2EDTA mouse plasma and rat brain homogenate (homogenized 1:7 (w:v) in 1xPBS) purchased from BioIVT, opposite a buffered compartment of 100mM Potassium phosphate/150mM Sodium chloride, pH 7.4, at 1uM for 4hr and 6hr respectively. […] Free fractions (fu) were then calculated by comparing peak-area ratios of matrix and buffered compartments.
In vivo pharmacokinetic studies were conducted in accordance with Biogen IACUC guidelines in 20-25g C57BL/6 mice purchased from Charles River Labs. A total of 9 mice, split into 3 groups (A,B,C), were dosed subcutaneously at 30mg/kg (3mg/mL; 10mL/kg) in a vehicle of 20% Captisol. […] Mouse brains were harvested for total drug concentration measurement, placed into MP Biomedicals Lysing Matrix D tubes, and stored at -80°C, along with plasma samples to await quantitative analysis.
Total drug concentration in plasma and brain tissue was measured via well-established bioanalytical extraction (protein precipitation) and detection methods (LC-MS/MS). […] Reconstituted extracts were then analyzed via LC-MS/MS (AB Sciex 5500) utilizing a binary HPLC setup (Shimadzu LC-20ADvp) and reverse-phase chromatography gradient (ACE 3 C18-AR). […]

TTBK1, TTBK2 = assay: Ex vivo KiNativ ATP/ADP probe competition in mouse cortical brain lysates; type: binding; settings: DIKPSNFAMGR; Lys2; ADP probe
MLK2 = biological target: T1, MLK2 (Mus musculus, UniProt Q66L42); assay: as above; type: binding; settings: DLKSINILILEAIENHNLADTVLK; Lys2; ATP probe
T1 construct: from tissue; host or cells: mouse cortical brain lysate
T1 sequence (Q66L42 whole entry): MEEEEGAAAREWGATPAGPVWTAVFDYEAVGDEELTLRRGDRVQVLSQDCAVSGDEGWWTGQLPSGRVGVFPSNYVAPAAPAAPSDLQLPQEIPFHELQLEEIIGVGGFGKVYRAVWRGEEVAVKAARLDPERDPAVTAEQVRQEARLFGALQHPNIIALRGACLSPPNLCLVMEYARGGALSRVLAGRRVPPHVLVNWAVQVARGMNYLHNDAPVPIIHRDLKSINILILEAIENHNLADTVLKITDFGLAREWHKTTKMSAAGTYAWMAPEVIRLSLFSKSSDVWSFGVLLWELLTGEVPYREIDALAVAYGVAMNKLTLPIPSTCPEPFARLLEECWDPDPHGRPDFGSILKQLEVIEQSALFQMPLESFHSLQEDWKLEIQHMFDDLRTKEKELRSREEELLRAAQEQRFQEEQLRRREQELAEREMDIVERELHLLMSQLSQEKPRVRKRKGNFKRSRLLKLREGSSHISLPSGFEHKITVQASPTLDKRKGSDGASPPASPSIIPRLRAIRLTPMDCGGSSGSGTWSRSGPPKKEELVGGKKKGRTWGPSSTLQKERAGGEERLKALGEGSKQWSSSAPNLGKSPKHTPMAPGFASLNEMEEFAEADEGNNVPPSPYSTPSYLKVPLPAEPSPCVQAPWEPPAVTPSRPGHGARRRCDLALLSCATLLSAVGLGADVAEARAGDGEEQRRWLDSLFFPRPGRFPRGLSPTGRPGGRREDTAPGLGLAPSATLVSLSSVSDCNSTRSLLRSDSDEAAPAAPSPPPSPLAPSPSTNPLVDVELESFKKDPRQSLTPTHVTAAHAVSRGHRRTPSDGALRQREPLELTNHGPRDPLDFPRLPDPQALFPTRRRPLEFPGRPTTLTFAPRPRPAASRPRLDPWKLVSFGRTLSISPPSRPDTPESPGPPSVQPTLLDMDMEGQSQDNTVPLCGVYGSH

PIP5K3 = biological target: T2, PIP5K3 (Mus musculus, UniProt Q9Z1T6); assay: as above; type: binding; settings: GGKSGAAFYATEDDRFILK, labeling site ATP
T2 construct: homogenized brain lysates were labeled with Desthiobiotin-ADP-acyl phosphate probe; from tissue; host or cells: mouse cortical brain lysate
T2 sequence (Q9Z1T6 whole entry): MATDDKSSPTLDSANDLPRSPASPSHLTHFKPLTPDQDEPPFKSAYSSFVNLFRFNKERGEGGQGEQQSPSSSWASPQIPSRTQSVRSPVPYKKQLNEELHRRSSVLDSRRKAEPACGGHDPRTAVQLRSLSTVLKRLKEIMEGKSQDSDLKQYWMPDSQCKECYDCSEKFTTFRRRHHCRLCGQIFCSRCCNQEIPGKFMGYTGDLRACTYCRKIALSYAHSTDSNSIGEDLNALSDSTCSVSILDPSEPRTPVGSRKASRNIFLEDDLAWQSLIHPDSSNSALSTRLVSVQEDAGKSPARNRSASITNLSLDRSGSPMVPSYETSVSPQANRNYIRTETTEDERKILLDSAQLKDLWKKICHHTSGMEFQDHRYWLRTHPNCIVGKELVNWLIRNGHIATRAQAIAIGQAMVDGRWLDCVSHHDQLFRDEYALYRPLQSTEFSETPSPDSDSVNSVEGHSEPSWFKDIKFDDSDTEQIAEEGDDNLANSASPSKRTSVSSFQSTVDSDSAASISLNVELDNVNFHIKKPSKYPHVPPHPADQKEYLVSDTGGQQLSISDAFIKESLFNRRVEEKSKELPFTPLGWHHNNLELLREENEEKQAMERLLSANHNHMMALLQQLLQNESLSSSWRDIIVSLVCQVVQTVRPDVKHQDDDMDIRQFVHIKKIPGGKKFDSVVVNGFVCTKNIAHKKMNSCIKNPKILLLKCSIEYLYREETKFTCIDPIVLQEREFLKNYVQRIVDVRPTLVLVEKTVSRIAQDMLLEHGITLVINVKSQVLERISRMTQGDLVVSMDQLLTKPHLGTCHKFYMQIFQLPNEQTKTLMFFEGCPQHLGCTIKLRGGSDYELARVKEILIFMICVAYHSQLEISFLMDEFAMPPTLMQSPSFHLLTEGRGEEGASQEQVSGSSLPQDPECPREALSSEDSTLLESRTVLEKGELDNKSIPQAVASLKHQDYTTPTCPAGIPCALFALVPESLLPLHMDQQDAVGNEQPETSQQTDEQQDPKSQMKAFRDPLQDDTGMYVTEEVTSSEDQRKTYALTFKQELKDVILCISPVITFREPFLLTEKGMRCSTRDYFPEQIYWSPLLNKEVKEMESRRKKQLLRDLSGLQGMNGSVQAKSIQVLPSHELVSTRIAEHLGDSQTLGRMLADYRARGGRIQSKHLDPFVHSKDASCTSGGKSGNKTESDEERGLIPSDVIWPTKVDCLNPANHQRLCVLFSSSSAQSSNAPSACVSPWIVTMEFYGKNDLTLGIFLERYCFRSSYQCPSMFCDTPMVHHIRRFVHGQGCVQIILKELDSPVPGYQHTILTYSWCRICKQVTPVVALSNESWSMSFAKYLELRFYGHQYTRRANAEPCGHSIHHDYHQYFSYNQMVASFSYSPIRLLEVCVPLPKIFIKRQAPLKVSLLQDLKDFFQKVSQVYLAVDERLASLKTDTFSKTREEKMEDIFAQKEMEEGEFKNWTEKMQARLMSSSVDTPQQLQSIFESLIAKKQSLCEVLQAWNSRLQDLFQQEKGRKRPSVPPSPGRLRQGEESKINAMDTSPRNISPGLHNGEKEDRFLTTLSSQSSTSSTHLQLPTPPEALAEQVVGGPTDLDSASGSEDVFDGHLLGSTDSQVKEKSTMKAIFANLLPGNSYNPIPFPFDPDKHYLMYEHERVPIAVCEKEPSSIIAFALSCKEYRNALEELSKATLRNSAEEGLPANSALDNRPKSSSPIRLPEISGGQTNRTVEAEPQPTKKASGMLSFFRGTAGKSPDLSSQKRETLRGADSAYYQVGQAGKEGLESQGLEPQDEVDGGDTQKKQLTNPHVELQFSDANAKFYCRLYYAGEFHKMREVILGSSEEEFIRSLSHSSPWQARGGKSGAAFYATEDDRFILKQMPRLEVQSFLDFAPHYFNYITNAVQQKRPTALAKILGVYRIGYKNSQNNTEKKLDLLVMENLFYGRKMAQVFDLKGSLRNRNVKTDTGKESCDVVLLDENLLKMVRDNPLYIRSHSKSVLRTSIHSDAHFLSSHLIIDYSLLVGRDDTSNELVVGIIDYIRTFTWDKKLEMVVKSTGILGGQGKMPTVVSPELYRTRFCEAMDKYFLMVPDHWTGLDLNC

PITSLRE = biological target: T3, PITSLRE (Mus musculus, UniProt P24788); assay: as above; type: binding; settings: DLKTSNLLLSHAGILK; Lys2; ATP probe
T3 construct: from tissue; host or cells: mouse cortical brain lysate
T3 sequence (P24788 1-784): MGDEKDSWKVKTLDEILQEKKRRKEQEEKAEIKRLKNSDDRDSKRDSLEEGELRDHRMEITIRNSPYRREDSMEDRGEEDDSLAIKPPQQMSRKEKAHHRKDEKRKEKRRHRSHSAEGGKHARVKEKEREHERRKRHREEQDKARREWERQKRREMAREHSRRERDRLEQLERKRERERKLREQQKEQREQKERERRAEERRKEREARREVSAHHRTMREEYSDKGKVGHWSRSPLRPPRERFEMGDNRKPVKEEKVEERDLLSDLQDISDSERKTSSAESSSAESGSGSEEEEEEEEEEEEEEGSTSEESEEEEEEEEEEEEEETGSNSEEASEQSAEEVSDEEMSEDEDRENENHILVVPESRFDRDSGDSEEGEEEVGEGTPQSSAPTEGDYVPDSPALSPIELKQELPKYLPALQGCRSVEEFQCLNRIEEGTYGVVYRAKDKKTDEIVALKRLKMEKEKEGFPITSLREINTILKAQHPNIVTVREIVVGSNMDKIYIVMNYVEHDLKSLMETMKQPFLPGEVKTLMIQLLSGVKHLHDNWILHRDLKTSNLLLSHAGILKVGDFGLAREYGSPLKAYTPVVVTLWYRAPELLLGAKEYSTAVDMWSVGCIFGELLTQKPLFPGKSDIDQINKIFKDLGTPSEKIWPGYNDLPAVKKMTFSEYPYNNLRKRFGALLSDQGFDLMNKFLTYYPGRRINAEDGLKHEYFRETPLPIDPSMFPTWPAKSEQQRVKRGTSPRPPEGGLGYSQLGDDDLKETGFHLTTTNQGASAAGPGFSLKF

[2] = Free drug in the brain after hypothermia experiment; type: in vivo; settings: C57Bl/6, mouse, intraperitoneal, one hour after dosing
Protocol: Following hypothermia induction, 200–300 μL of blood was collected via cardiac punch and transferred to K2EDTA-treated BD Microtainers (Becton Dickinson and Co., Franklin Lakes, NJ). Mice were sacrificed via decapitation and brains were quickly removed and bisected sagitally. The right cortices, were isolated, placed into 2 mL microtubes along with a single 5 mm stainless steel bead and the left cortices were placed into 2 mL Lysing Matrix A tubes (MP Biomedicals, Santa Ana, CA). Both tubes were immediately snap frozen in liquid nitrogen. The whole blood-containing microtainers were centrifuged (2000 x g, 5 minutes) and plasma was transferred to 96-well plates for pharmacokinetic determination. […] The protein content of each sample was quantified using a Direct Detect Infrared Spectrometer (EMD Millipore Corp., Burlington, MA).
In vitro plasma and brain protein binding values were generated via the Rapid Equilibrium Dialysis method. […] At the conclusion of incubation, samples were taken from both matrix and buffered compartments, matrix-matched using blank buffer and matrix, extracted with acetonitrile, diluted with water, and analyzed utilizing an Agilent RapidFire 365 high-throughput LC coupled with MS/MS detection via an AB Sciex 5500. Free fractions (fu) were then calculated by comparing peak-area ratios of matrix and buffered compartments. […]

With `CCC(C)(O)C#Cc1cc2c(ccn2-c2ccnc(N)n2)cn1` (centres unmarked) [BIIB-TTBK1i] the clearance rate [1] was “rapid”, the “Percent Inhibition at 1μM” value (TTBK1, TTBK2) was 95.8% and the “Percent Inhibition at 1μM” value (MLK2) was 60.1%. For the same molecule, the “Percent Inhibition at 1μM” value (PIP5K3; ADP probe) was 90.2%, the “Percent Inhibition at 1μM” value (PIP5K3; ATP probe) was 95.9% and the “Percent Inhibition at 1μM” value (PITSLRE) was 63.3%. The concentration at 1 h ([2]; 25mg/kg I.P., read-out: concentration of free drug in the brain) was 207 nM and the concentration at 1 h ([2]; 50mg/kg I.P., read-out: average free drug in the brain) was 602 nM.
